Results as given in US8147892B2, “Kokumi flavour compounds and use” (Givaudan SA, priority 2005, dated 2012).
Entries after “also recorded” stand apart in the source; their conditions may differ.

Key:
sensory panel [1] = assay: Sensory triangle test in chicken broth (kokumi intensity, taste profile); conditions: for kokumi taste (found or not): tested as described in Example 1 (chicken broth), concentration not given; for Sensory descriptors / effect on mouthfulness and complexity of the taste profile / Kokumi intensity (0-5): chicken broth; for Sensory descriptors / Kokumi intensity (0-5): pH 6.5; for Kokumi intensity (0-5): scale 0 to 5 (5 most intensive), negative control 2
Description: (§1) Unless otherwise indicated, all sensory tests are triangle tests and are performed according to the guidelines in “Amtliche Sammlung von Untersuchungsverfahren nach §35 LMBG (Lebensmittel-und Bedarfsgegenständegesetz)”; L 00.90 7, Untersuchung von Lebensmitteln, Sensorische Prüfverfahren, Dreiecksprüfung (Übemahme der gleichnahmigen Deutschen Norm DIN ISO 4120, Ausgabe January 1995), as follows:
The sensory panel is trained to evaluate the taste of aqueous solutions (4 ml each) of the following standard taste compounds by using a triangle test as described in the literature (Wieser and Belitz, Z. Lebensm. Unters. Forsch., 1975, 159, 65-72): sucrose (40 mmol/L) for sweet taste; citric acid (5 mmol/L) for sour taste; NaCl (12 mmol/L salty taste; caffeine (2 mmol/L) for bitter taste; and monosodium glutamate (MSG; 6 mmol/L) for umami taste. For kokumi taste, a solution of glutathione (10 mmol/L) in diluted chicken broth concentrate (Goumet Bouillon Huhn, Maggi, Singen, Germany; 3 g/100 g bottled water (Evian®)) is prepared and compared to the taste of chicken broth with no glutathione added.
(§2) All sensory analyses are performed in a sensory panel room at 22-25° C. over three different sessions by a trained panel of 8 to 10 individuals.
(§3) For recording the taste profiles, samples are prepared as indicated in the examples below. Taste profiles of samples are determined in a triangle test in three different sessions. Panellists refrain from eating or drinking for at least 1 hour prior to the session. At the start of the session and before each trial, the subject rinsed with water and expectorated. The participants receive a set of two blanks and one taste sample. Liquid samples are swirled around in the mouth briefly and expectorated. Solid samples are chewed for 20 seconds and then expectorated. […] Each sample with additive is compared to two reference samples without additives. Kokumi intensity is rated from 0-5 according to a scale from 0 to 5 (with 5 most intensive). The additive is added to a consumable and the sample is homogenised. The samples are presented to the sensory panel directly after homogenisation. The sensory panel included 8 trained individuals with exception of example 2, here the panel consists of 10 trained individuals.
Chicken Broth is prepared by dilution of 3 g chicken broth concentrate (Gourmet Bouillon Huhn; Maggi, Singen, Germany) with 100 ml water (Evian). Additives are added as specified in table below.
The pH-value of all samples is adjusted to 6.5 using formic acid (0.1 moVL) or sodium hydroxide (0.1 mol/L).
For each sample, kokumi intensity is rated and panelists are asked to describe sensory characteristics.
Compounds of formula I as listed in the table below are tested in chicken broth (prepared as described in example 1) and compared to hGSH.

sensory panel [2] = assay: Sensory triangle test in ketchup; conditions: 2500 ppm; for Test results (sensory description vs reference): ketchup (Kraft)
Description: as §1, §2, §3
Glutathione (GSH) and homoglutathione (hGSH) are added to ketchup (Kraft) in a concentration of 2500 ppm.

sensory panel [3] = assay: Sensory triangle test in cream cheese; conditions: 1000 ppm
Source text: The sensory panel included 8 trained individuals with exception of example 2, here the panel consists of 10 trained individuals.
The mixture is stirred until homogeneous.

sensory panel [4] = assay: Sensory triangle test in tomato juice; conditions: for Test results (sensory description vs reference): listed as γ-Glu-Cys-β-Ala
Description: as §1, §2, §3
Glutathione and homoglutathione are added to tomato juice (Albi, Germany) in the concentrations indicated below.

## C[C@H](N)C(=O)O [Ala]
Sensory panel [1]
  kokumi taste (found or not): not to have a kokumi taste

## NC(=O)C[C@H](N)C(=O)O [Asn]
Sensory panel [1]
  kokumi taste (found or not): not to have a kokumi taste

## N[C@@H](CC(=O)O)C(=O)O [Asp]
Sensory panel [1]
  kokumi taste (found or not): not to have a kokumi taste

## N[C@@H](CSSC[C@H](N)C(=O)O)C(=O)O [Cys-S—S-Cys]
Sensory panel [1]
  kokumi taste (found or not): not to have a kokumi taste

## N[C@@H](CS)C(=O)O [Cys]
Sensory panel [1]
  kokumi taste (found or not): not to have a kokumi taste

## N[C@@H](CCC(=O)N[C@@H](CS)C(=O)NCC(=O)O)C(=O)O [GSH, Gamma-L-glutamyl-L-cysteinyl-glycine]
Sensory panel [2]
  Test results (sensory description vs reference): the observed effect is lower

## NC(=O)CC[C@H](N)C(=O)O [Gln]
Sensory panel [1]
  kokumi taste (found or not): not to have a kokumi taste

## N[C@@H](CCC(=O)O)C(=O)O [Glu]
Sensory panel [1]
  kokumi taste (found or not): not to have a kokumi taste

## N[C@@H](CCC(=O)O)C(=O)[O-].[Na+] [MSG, mono sodium glutamate]
Sensory panel [1]; additive 10 mmol/L
  Sensory descriptors: higher umami (taste of MSG) intensity; also recorded: Increased umami taste
Sensory panel [1]; positive control 10 mmol/L
  effect on mouthfulness and complexity of the taste profile: no effect on mouthfulness and complexity

## [Cl-].[Na+] [NaCl]
Sensory panel [1]; additive 30 mmol/L
  Sensory descriptors: increased salt taste
  Kokumi intensity (0-5): 2
Sensory panel [1]; additive 30 mmol/L, listed as NaCI
  Sensory descriptors: more salty than the negative control
Sensory panel [1]; positive control 30 mmol/L
  effect on mouthfulness and complexity of the taste profile: no effect on mouthfulness and complexity

## N[C@@H](CCC(=O)N[C@@H](CS)C(=O)NCCC(=O)O)C(=O)O [hGSH, Gamma-L-glutamyl-L-cysteinyl-beta-alanine]
Sensory panel [1]; additive 10 mmol/L
  Sensory descriptors: increases the mouthfulness, complexity, and long lasting taste sensation
  Kokumi intensity (0-5): 4.0
Sensory panel [2]
  Test results (sensory description vs reference): more meaty, bouillon-like, and intensified overall taste
Sensory panel [2]; ketchup
  panelists indicating more meaty, bouillon-like, and intensified overall taste: 7 out of 8 panelists
Sensory panel [3]; cream cheese (Philadelphia, Kraft)
  Test results (sensory description vs reference): more mouthfulness, richness, and kokumi-like complexity
Sensory panel [3]; cream cheese
  panelists finding the sample different from the reference sample and preferred: 9 out of a panel of 10
Sensory panel [4]; 250 ppm
  panelists preferring the sample: 7 out of 8 panelists
  Test results (sensory description vs reference): more intensive and well-balanced kokumi taste
Sensory panel [4]; 5000 ppm
  Test results (sensory description vs reference): even more pronounced kokumi sensation compared to an isoconcentrated glutathione sample

## NCCC(=O)O [β-Ala]
Sensory panel [1]
  kokumi taste (found or not): not to have a kokumi taste
